Common to all, as to assay type: functional, cell-based
Common to all, as to conditions: for Kb: read-out: pA2 (converted)

Experiment [1] deals with Muscarinic acetylcholine receptor M3 (Homo sapiens, UniProt P20309). As to the kind of experiment: Antagonist activity at human recombinant muscarinic M3 receptor expressed in CHO cells assessed as inhibition of acetylcholine-induced intracellular Ca2+ mobilization by FLIPR assay. (In general: A change in cytosolic calcium serves as a functional read-out for many receptors and channels.)
Sequence of Muscarinic acetylcholine receptor M3 (P20309 whole entry): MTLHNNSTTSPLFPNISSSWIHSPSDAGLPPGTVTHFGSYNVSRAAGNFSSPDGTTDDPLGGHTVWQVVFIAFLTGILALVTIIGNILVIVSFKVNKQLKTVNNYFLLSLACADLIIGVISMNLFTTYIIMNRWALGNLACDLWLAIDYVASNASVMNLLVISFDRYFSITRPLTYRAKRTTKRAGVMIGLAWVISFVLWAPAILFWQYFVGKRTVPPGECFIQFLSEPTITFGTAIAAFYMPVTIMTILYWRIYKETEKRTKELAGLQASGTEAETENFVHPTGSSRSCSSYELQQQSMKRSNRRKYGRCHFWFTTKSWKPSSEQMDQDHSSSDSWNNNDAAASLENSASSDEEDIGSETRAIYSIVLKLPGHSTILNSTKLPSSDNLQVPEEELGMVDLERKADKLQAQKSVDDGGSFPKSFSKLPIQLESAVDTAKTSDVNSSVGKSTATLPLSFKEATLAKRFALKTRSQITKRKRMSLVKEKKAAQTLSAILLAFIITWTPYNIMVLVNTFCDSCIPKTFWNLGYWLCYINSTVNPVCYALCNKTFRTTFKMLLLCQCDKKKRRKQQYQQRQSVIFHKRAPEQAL

For experiment [2], the target named is T1, Muscarinic acetylcholine receptor M2 (Homo sapiens, UniProt P08172).
T1 sequence (P08172 whole entry): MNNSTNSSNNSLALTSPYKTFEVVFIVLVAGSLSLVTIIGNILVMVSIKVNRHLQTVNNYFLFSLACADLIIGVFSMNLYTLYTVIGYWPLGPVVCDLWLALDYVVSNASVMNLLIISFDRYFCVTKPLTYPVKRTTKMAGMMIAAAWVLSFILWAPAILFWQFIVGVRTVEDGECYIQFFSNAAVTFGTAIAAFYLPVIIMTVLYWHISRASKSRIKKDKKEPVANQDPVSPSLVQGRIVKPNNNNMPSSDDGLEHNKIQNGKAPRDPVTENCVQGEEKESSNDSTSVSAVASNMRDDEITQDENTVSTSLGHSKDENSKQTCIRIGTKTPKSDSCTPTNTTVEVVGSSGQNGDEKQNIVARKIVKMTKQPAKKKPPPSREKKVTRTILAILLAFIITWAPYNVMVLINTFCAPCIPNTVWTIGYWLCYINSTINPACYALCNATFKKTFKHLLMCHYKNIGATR
The experiment is described as follows: Antagonist activity at human recombinant muscarinic M2 receptor expressed in CHO cells coexpressing chimeric G protein Gqi5 assessed as inhibition of acetylcholine-induced intracellular Ca2+ mobilization by FLIPR assay.

Experiment [3] addresses T2, Muscarinic acetylcholine receptor M1 (Homo sapiens, UniProt P11229).
T2 sequence (P11229 whole entry): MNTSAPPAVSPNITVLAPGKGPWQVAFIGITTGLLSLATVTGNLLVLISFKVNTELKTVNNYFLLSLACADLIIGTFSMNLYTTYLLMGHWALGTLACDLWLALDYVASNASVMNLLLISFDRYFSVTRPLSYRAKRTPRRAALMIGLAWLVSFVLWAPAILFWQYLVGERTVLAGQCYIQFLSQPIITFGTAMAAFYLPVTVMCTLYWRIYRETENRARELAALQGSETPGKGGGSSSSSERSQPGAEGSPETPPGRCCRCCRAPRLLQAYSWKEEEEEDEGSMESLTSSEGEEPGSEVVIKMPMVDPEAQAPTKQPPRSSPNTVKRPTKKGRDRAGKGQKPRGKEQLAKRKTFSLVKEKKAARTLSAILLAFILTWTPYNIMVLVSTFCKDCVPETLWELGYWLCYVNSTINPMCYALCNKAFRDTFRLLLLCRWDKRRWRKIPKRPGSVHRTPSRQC
As to the kind of experiment: Antagonist activity at human recombinant muscarinic M1 receptor expressed in CHO cells assessed as inhibition of acetylcholine-induced intracellular Ca2+ mobilization by FLIPR assay.

With `CCOC(=O)c1ccc(NC(=O)N[C@@H](Cc2ccc(O)cc2)C(=O)N[C@H]2CCC[N+](C)(Cc3ccc(F)cc3)C2)cc1` (some centres not stated), the results for the 50% inhibitory concentration (IC50) in experiment [1], in experiment [2] and in experiment [3] were 2 nM, 2.51 nM and 100 nM, respectively.
For `CC(C)NC(=O)c1ccc(NC(=O)N[C@@H](Cc2ccc(O)cc2)C(=O)NC2CCN(Cc3ccc(C#N)cc3)C2)cc1` (some centres not stated), the figures for the IC50 in experiment [1], in experiment [2] and in experiment [3] were 100 nM, 1580 nM and > 3160 nM, respectively.
`N#Cc1ccc(CN2CCC(NC(=O)[C@H](Cc3ccc(O)cc3)NC(=O)Nc3ccc(C(=O)N4CCOCC4)cc3)C2)cc1` (some centres not stated): the IC50 was 1000 nM in experiment [1], > 3160 nM in experiment [2] and > 3160 nM in experiment [3].
Consider `CCOC(=O)c1ccc(NC(=O)N[C@@H](Cc2ccc(OC)c(OC)c2)C(=O)N[C@H]2CC[N+](C)(Cc3ccc4c(c3)OCO4)C2)cc1` (some centres not stated), for which the IC50 is 1260 nM in experiment [1], 50.1 nM in experiment [2] and 631 nM in experiment [3].
On the same counts, the results for `N#Cc1ccc(CN2CCC(NC(=O)[C@H](Cc3ccc(O)cc3)NC(=O)Nc3ccc(C(=O)NCc4ccccc4)cc3)C2)cc1` (some centres not stated) are 1580 nM, > 3160 nM and > 3160 nM.
In the case of `CCOC(=O)c1ccc(NC(=O)N[C@@H](Cc2ccc(OC)cc2)C(=O)N[C@H]2CC[N+](C)(Cc3ccc4c(c3)OCO4)C2)cc1` (some centres not stated), the half-inhibitory concentration (IC50) in experiment [1] was 39.8 nM; in experiment [2], 5.01 nM; in experiment [3], 79.4 nM.
As for `CCOC(=O)c1ccc(NC(=O)N[C@@H](Cc2ccccc2Cl)C(=O)N[C@H]2CC[N+](C)(Cc3ccc4c(c3)OCO4)C2)cc1` (some centres not stated), the results for the IC50 in experiment [1], in experiment [2] and in experiment [3] were 126 nM, 100 nM and 2000 nM, respectively.
As to `CCCNC(=O)c1ccc(NC(=O)N[C@@H](Cc2ccc(O)cc2)C(=O)NC2CCN(Cc3ccc(C#N)cc3)C2)cc1` (some centres not stated), the IC50 in experiment [1] is 501 nM; in experiment [2], > 3160 nM; in experiment [3], > 3160 nM.
With `CCOC(=O)c1ccc(NC(=O)N[C@@H](Cc2ccc(O)cc2)C(=O)N[C@H]2CC[N+](C)(Cc3ccc4c(c3)OCO4)C2)cc1` (some centres not stated), the IC50 is 6.31 nM in experiment [1], 39.8 nM in experiment [2] and 158 nM in experiment [3].
On the same counts, the results for `CCN(CC)C(=O)c1ccc(NC(=O)N[C@@H](Cc2ccc(O)cc2)C(=O)NC2CCN(Cc3ccc(C#N)cc3)C2)cc1` (some centres not stated) are 398 nM, > 3160 nM and > 3160 nM.
On the same counts, the results for `CCOC(=O)c1ccc(NC(=O)N[C@@H](Cc2ccc(F)cc2)C(=O)N[C@H]2CC[N+](C)(Cc3ccc4c(c3)OCO4)C2)cc1` (some centres not stated) are 15.8 nM, 10 nM and 100 nM.
For `CCCOC(=O)c1ccc(NC(=O)N[C@@H](Cc2ccc(O)cc2)C(=O)NC2CCN(Cc3ccc(O)cc3)C2)cc1` (some centres not stated) the same measures were 10 nM, 100 nM and 1000 nM.
Turning to `CCOC(=O)c1ccc(NC(=O)N[C@@H](Cc2ccc(Br)cc2)C(=O)N[C@H]2CC[N+](C)(Cc3ccc4c(c3)OCO4)C2)cc1` (some centres not stated), the IC50 in experiment [1] was 12.6 nM; in experiment [2] it was 3.98 nM; in experiment [3] it was 31.6 nM.
On the same counts, the results for `CCOC(=O)c1ccc(NC(=O)N[C@@H](Cc2ccc(N)cc2)C(=O)N[C@H]2CC[N+](C)(Cc3ccc4c(c3)OCO4)C2)cc1` (some centres not stated) are 15.8 nM, 15.8 nM and 1260 nM.
`N#Cc1ccc(CN2CCC(NC(=O)[C@H](Cc3ccc(O)cc3)NC(=O)Nc3ccc(C(=O)Nc4ccccc4)cc3)C2)cc1` (some centres not stated): the IC50 in experiment [1] is 501 nM; in experiment [2] it was > 3160 nM; in experiment [3], > 3160 nM.
As for `CCOC(=O)c1ccc(NC(=O)N[C@@H](Cc2ccc(Cl)c(Cl)c2)C(=O)N[C@H]2CC[N+](C)(Cc3ccc4c(c3)OCO4)C2)cc1` (some centres not stated), the IC50 in experiment [1] was 25.1 nM; in experiment [2], 12.6 nM; in experiment [3], 39.8 nM.
`CCOC(=O)c1ccc(NC(=O)N[C@@H](Cc2ccc(-c3ccccc3)cc2)C(=O)N[C@H]2CC[N+](C)(Cc3ccc4c(c3)OCO4)C2)cc1` (some centres not stated): the figures for the IC50 in experiment [1], in experiment [2] and in experiment [3] were 15.8 nM, 5.01 nM and 12.6 nM, respectively.
For `CNC(=O)c1ccc(NC(=O)N[C@@H](Cc2ccc(O)cc2)C(=O)NC2CCN(Cc3ccc(C#N)cc3)C2)cc1` (some centres not stated) the same measures were 2510 nM, > 3160 nM and > 3160 nM.
Take `CCOC(=O)c1ccc(NC(=O)N[C@@H](Cc2ccc(C#N)cc2)C(=O)N[C@H]2CC[N+](C)(Cc3ccc4c(c3)OCO4)C2)cc1` (some centres not stated): the IC50 in experiment [1] is 50.1 nM; in experiment [2], 12.6 nM; in experiment [3], 251 nM.
On the same counts, the results for `CCOC(=O)c1ccc(NC(=O)N[C@@H](Cc2ccc(Cl)cc2)C(=O)N[C@H]2CC[N+](C)(Cc3ccc4c(c3)OCO4)C2)cc1` (some centres not stated) are 10 nM, 6.31 nM and 39.8 nM.
For `CCOC(=O)c1ccc(NC(=O)N[C@@H](Cc2ccc(O)cc2)C(=O)N[C@H]2CC[N+](C)(Cc3ccc(O)cc3)C2)cc1` (some centres not stated) the same measures were 6.31 nM, 39.8 nM and 251 nM.
For the compound `CC(C)OC(=O)c1ccc(NC(=O)N[C@@H](Cc2ccc(O)cc2)C(=O)N[C@H]2CCC[N+]3(CCCCCC3)C2)cc1`, the Kb was 3.16 nM in experiment [1], 5.01 nM in experiment [2] and 79.4 nM in experiment [3].
On the same counts, the results for `CC(C)OC(=O)c1ccc(NC(=O)N[C@@H](Cc2ccc(O)cc2)C(=O)N[C@H]2CCC[N+](CC3CC3)(CC3CC3)C2)cc1` are 0.631 nM, 5.01 nM and 39.8 nM.
On the same counts, the results for `CC(C)NC(=O)c1ccc(NC(=O)N[C@@H](Cc2ccc(O)cc2)C(=O)N[C@H]2CCC[N+](C)(Cc3ccc(O)cc3)C2)cc1` (some centres not stated) are 0.631 nM, 3.98 nM and 79.4 nM.
Take `CCOC(=O)c1ccc(NC(=O)N[C@@H](Cc2ccc(C)cc2)C(=O)N[C@H]2CC[N+](C)(Cc3ccc4c(c3)OCO4)C2)cc1` (some centres not stated): the IC50 in experiment [1] is 15.8 nM; in experiment [2], 10 nM; in experiment [3], 100 nM.
Regarding `CCOC(=O)c1ccc(NC(=O)N[C@@H](Cc2cccc(Cl)c2)C(=O)N[C@H]2CC[N+](C)(Cc3ccc4c(c3)OCO4)C2)cc1` (some centres not stated), the IC50 is 7.94 nM in experiment [1], 3.98 nM in experiment [2] and 25.1 nM in experiment [3].
On the same counts, the results for `CCOC(=O)c1ccc(NC(=O)N[C@@H](Cc2ccc(O)cc2)C(=O)N[C@H]2CC[N+](C)(Cc3ccc(F)cc3)C2)cc1` (some centres not stated) are 6.31 nM, 39.8 nM and 200 nM.
`COC(=O)c1ccc(NC(=O)N[C@@H](Cc2ccc(O)cc2)C(=O)NC2CCN(Cc3ccc(O)cc3)C2)cc1` (some centres not stated): the IC50 in experiment [1] is 25.1 nM; in experiment [2], 316 nM; in experiment [3] it was 1000 nM.
With `CCOC(=O)c1ccc(NC(=O)N[C@@H](Cc2ccc(C(=O)c3ccccc3)cc2)C(=O)N[C@H]2CC[N+](C)(Cc3ccc4c(c3)OCO4)C2)cc1` (some centres not stated), the values for the IC50 in experiment [1], in experiment [2] and in experiment [3] were 12.6 nM, 2.51 nM and 10 nM, respectively.
For the compound `CC(C)COC(=O)c1ccc(NC(=O)N[C@@H](Cc2ccc(O)cc2)C(=O)NC2CCN(Cc3ccc(O)cc3)C2)cc1` (some centres not stated), the IC50 in experiment [1] is 251 nM; in experiment [2] it was 1260 nM; in experiment [3] it was > 3160 nM.
On the same counts, the results for `CCOC(=O)c1ccc(NC(=O)N[C@@H](Cc2ccc(C(F)(F)F)cc2)C(=O)N[C@H]2CC[N+](C)(Cc3ccc4c(c3)OCO4)C2)cc1` (some centres not stated) are 31.6 nM, 10 nM and 50.1 nM.
On the same counts, the results for `CCNC(=O)c1ccc(NC(=O)N[C@@H](Cc2ccc(O)cc2)C(=O)NC2CCN(Cc3ccc(C#N)cc3)C2)cc1` (some centres not stated) are 316 nM, > 3160 nM and > 3160 nM.
`Cc1noc(-c2ccc(NC(=O)N[C@@H](Cc3ccc(O)cc3)C(=O)N[C@H]3CCC[N+](C)(Cc4ccc(O)cc4)C3)cc2)n1` (some centres not stated): the Kb in experiment [1] is 2 nM; in experiment [2] it was 6.31 nM; in experiment [3], 158 nM.
Regarding `O=C(Nc1ccc(C(=O)OCC2CC2)cc1)N[C@@H](Cc1ccc(O)cc1)C(=O)NC1CCN(Cc2ccc(O)cc2)C1` (some centres not stated), the results for the IC50 in experiment [1], in experiment [2] and in experiment [3] were 100 nM, 398 nM and 1000 nM, respectively.

For orientation: IC50 means the point on the concentration scale where inhibition reaches its midpoint.

Values taken from ChEMBL document CHEMBL1152232, “Muscarinic acetylcholine receptor antagonists: SAR and optimization of tyrosine ureas” (Bioorg Med Chem Lett, 2008).
